This note sets out measurements from ChEMBL document CHEMBL4382281, “ASK1: A Therapeutic Target for the Treatment of Multiple Diseases” (ACS Med Chem Lett, 2019).

The IC50 is the concentration at which inhibition is half-maximal.

In test [1] the target is T1, Mitogen-activated protein kinase kinase kinase 5 (Homo sapiens, UniProt Q99683).
T1 sequence (Q99683 whole entry): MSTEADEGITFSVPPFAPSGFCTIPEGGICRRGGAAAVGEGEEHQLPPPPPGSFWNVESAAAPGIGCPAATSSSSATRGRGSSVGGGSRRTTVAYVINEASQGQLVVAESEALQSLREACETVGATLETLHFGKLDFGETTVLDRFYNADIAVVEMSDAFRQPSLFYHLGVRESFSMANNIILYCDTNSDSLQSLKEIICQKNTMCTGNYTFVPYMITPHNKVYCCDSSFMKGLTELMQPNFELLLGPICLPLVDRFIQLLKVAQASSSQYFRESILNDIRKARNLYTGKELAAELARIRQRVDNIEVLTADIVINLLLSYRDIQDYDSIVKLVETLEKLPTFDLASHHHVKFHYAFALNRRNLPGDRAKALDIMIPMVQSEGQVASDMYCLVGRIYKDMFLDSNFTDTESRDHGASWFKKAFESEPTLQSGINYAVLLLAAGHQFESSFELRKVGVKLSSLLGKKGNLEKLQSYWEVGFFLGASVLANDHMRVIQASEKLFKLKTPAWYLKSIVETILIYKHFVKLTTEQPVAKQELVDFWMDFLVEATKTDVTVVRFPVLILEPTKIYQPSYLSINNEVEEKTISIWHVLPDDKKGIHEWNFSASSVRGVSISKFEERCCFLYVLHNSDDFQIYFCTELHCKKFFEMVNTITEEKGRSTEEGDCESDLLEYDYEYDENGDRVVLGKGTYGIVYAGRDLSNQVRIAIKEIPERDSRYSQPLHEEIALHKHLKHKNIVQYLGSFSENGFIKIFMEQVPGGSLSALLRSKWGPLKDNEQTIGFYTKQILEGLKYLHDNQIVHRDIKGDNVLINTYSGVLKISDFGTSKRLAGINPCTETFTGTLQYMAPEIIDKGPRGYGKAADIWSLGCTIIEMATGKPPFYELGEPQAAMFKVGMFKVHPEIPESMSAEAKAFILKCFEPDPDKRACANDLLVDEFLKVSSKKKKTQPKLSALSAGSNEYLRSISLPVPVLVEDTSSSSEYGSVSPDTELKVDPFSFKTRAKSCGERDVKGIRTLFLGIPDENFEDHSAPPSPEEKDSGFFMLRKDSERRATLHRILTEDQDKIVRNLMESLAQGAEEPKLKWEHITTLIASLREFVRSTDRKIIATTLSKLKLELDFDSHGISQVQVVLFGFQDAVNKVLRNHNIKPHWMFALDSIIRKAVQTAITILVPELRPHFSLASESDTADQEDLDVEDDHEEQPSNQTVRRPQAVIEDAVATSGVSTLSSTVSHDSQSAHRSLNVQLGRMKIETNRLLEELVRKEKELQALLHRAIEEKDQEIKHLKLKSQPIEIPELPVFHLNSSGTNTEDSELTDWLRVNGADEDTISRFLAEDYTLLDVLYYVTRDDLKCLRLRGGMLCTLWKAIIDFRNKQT
Kind of test: Inhibition of full-length human GST-tagged ASK1 expressed in baculovirus expression system using biotinylated STK Substrate 3 preincubated for 10 mins followed by ATP addition and measured after 5 hrs by TR-FRET assay. (In general: In TR-FRET formats the signal depends on donor and acceptor labels being close together.)

The target in test [2] is T1, Mitogen-activated protein kinase kinase kinase 5. As to the kind of experiment: Inhibition of human ASK1 using MBP as substrate measured in presence of [gamma-33P]-ATP.
For test [3] the target is unchanged. Kind of test: Inhibition of recombinant V5-tagged ASK1 (unknown origin) expressed in HEK293 cells assessed as reduction in ASK1 autophosphorylation at T838 residue after 1 hr by MSD assay. Format: cell-based.

Turning to `Cc1ncn(-c2ccc3c(c2)C(=O)Nc2cccc(n2)-c2nncn2CCCCO3)c1C`, the IC50 in test [1] is not above 100 nM; in test [2], not above 100 nM; in test [3], not above 1000 nM.

As for `Cc1ccc2c(c1)C(=O)Nc1cccc(n1)-c1nncn1CCCCO2`, the IC50 in test [1] was not above 100 nM; in test [2] it was not above 100 nM; in test [3], not above 1000 nM.

For `O=C1Nc2cccc(n2)-c2nncn2C/C=C/COc2c(Br)cccc21`, the results for the IC50 in test [1] and in test [3] were 100 to 1000 nM and more than 10000 nM, respectively.
